Data as given in patent US20070270399A1, “New compounds 302” (priority 2006, published 2007).

What was measured:
[1] = target: hERG-encoded potassium channel (Homo sapiens, UniProt Q12809); experiment: Activity against hERG (planar-array-based voltage clamp); type: cell-based
Procedure: The activity of compounds according to formula I against the hERG-encoded potassium channel can be determined according to Kiss L, et al. Assay Drug Dev Technol. 1 (2003), 127-35: “High throughput ion-channel pharmacology: planar-array-based voltage clamp”.
The IC50 values tested as described above were generally greater than 8 μM.

[2] = Metabolic stability in liver microsomes (intrinsic clearance); type: in vitro ADME; settings: human, pH 7.4, 37° C., read-out: CLint (HLM)
Procedure: The metabolic stability of compounds according to formula I can be determined as described below: […]
The rate of biotransformation can be measured as either metabolite(s) formation or the rate of disappearance of the parent compound. The experimental design involves incubation of low concentrations of substrate (usually 1.0 μM) with liver microsomes (usually 0.5 mg/ml) and taking out aliquotes at varying time points (usually 0, 5, 10, 15, 20, 30, 40 min.). The test compound is usually dissolved in DMSO. The DMSO concentration in the incubation mixture is usually 0.1% or less since more solvent can drastically reduce the activities of some CYP450s. Incubations are done in 100 mM potassium phosphate buffer, pH 7.4 and at 37° C. Acetonitrile or methanol is used to stop the reaction. The parent compound is analysed by HPLC-MS. From the calculated half-life, t1/2, the intrinsic clearance, Clint, is estimated by taking microsomal protein concentration and liver weight into account.

human NK1 receptor = target: T1, human NK1 receptor (Homo sapiens, UniProt P25103); experiment: FLIPR assay, inhibition of human NK1 receptor activation (intracellular Ca2+); type: cell-based; settings: CHO cells with human NK1 receptor, Substance P agonist at approx. EC60; pKB converted from IC50
T1 construct: expressed in transfected cells; host or cells: CHO cells (AstraZeneca R&D, Wilmington USA), pRcCMV vector
T1 sequence (P25103 whole entry): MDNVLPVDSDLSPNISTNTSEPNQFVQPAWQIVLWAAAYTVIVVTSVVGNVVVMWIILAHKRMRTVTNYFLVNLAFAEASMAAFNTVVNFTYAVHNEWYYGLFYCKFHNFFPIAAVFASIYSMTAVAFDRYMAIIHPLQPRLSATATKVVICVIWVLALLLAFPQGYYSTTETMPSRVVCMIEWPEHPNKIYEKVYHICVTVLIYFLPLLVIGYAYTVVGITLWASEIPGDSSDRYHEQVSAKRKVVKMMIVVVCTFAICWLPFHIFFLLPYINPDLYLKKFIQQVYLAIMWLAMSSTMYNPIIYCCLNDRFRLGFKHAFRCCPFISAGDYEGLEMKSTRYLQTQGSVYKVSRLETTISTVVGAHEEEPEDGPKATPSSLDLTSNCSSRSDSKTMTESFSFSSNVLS
Procedure: (§1) Chinese Hamster Ovary (CHO) K1 cells (obtained from ATCC) were stably transfected with the human NK2 receptor (hNK2R cDNA in pRc/CMV, Invitrogen) or the human NK3 receptor (hNK3R in pcDNA 3.1/Hygro (+)/IRES/CD8, Invitrogen vector modified at AstraZeneca EST-Bio UK, Alderley Park). The cells were transfected with the cationic lipid reagent LIPOFECTAMINE™ (Invitrogen) and selection was performed with Geneticin (G418, Invitrogen) at 1 mg/ml for the hNK2R transfected cells and with Hygromycin (Invitrogen) at 500 μg/ml for the hNK3R transfected cells. Single cell clones were collected by aid of Fluorescence Activated Cell Sorter (FACS), tested for functionality in a FLIPR assay (see below), expanded in culture and cryopreserved for future use. CHO cells stably transfected with human NK1 receptors originates from AstraZeneca R&D, Wilmington USA. Human NK1 receptor cDNA (obtained from RNA-PCR from lung tissue) was subcloned into pRcCMV (Invitrogen). Transfection was performed by Calcium Phosphate and selection with 1 mg/ml G418. […]
(§2) The activity of a compound of the invention to inhibit NK1/NK2/NK3 receptor activation measured as NK1/NK2/NK3 receptor mediated increase in intracellular Ca^2+ was assessed by the following procedure: […]

human NK3 receptor = target: T2, human NK3 receptor (Homo sapiens, UniProt P29371); experiment: FLIPR assay, inhibition of human NK3 receptor activation (intracellular Ca2+); type: cell-based; settings: CHO cells with human NK3 receptor, Pro-7-NKB agonist at approx. EC60; pKB converted from IC50
T2 construct: expressed in transfected cells; host or cells: CHO K1 cells (ATCC), pcDNA 3.1/Hygro (+)/IRES/CD8 vector
T2 sequence (P29371 1-465): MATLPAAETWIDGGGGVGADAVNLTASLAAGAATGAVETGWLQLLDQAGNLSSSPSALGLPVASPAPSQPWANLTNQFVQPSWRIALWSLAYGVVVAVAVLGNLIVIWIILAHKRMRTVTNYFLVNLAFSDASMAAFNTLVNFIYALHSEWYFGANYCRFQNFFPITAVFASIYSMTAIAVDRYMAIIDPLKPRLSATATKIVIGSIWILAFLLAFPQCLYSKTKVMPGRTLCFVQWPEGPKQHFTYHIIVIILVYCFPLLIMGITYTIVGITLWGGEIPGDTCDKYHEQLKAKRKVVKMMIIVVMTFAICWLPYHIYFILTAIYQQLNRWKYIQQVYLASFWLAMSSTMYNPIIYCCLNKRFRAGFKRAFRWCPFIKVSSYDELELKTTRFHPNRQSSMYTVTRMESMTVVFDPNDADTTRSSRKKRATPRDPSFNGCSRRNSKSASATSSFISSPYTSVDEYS
Procedure: as §1, §2

human NK2 receptor = target: T3, human NK2 receptor (Homo sapiens, UniProt P21452); experiment: FLIPR assay, inhibition of human NK2 receptor activation (intracellular Ca2+); type: cell-based; settings: CHO cells with human NK2 receptor, NKA agonist at approx. EC60; pKB converted from IC50
T3 construct: expressed in transfected cells; host or cells: CHO K1 cells (ATCC), pRc/CMV vector
T3 sequence (P21452 1-398): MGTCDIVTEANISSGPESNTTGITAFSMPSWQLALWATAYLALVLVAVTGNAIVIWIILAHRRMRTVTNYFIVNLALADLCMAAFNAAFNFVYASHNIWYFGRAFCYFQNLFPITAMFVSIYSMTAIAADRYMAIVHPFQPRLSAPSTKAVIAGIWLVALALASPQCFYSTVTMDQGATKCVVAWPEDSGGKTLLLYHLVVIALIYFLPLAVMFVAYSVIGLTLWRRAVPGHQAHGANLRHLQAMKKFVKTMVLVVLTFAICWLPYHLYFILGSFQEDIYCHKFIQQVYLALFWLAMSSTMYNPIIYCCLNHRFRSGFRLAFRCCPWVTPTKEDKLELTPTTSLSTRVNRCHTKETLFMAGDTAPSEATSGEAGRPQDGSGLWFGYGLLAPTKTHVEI
Procedure: as §1, §2

CYP3A4 = CYP3A4 (Homo sapiens, UniProt P08684); experiment: CYP3A4 inhibition according to Bapiro et al; type: in vitro ADME
Chain of CYP3A4 (P08684 whole entry): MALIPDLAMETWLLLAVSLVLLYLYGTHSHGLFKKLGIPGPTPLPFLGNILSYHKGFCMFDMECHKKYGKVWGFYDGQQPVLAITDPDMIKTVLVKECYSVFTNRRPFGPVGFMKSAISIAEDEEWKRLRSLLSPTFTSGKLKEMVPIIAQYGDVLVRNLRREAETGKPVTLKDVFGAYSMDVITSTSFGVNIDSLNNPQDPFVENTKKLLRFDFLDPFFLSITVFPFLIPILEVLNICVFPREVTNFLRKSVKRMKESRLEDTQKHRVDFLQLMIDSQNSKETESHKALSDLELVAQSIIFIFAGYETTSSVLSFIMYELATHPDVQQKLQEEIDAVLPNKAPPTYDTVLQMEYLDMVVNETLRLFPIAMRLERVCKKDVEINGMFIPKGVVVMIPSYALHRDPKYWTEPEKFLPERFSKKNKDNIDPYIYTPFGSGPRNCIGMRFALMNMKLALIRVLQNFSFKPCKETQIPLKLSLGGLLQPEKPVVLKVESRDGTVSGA
Procedure: The IC50 values tested according to Bapiro et al; Drug Metab. Dispos. 29, 30-35 (2001) were generally greater than 50 μM.

Chain of hERG-encoded potassium channel (Q12809 whole entry): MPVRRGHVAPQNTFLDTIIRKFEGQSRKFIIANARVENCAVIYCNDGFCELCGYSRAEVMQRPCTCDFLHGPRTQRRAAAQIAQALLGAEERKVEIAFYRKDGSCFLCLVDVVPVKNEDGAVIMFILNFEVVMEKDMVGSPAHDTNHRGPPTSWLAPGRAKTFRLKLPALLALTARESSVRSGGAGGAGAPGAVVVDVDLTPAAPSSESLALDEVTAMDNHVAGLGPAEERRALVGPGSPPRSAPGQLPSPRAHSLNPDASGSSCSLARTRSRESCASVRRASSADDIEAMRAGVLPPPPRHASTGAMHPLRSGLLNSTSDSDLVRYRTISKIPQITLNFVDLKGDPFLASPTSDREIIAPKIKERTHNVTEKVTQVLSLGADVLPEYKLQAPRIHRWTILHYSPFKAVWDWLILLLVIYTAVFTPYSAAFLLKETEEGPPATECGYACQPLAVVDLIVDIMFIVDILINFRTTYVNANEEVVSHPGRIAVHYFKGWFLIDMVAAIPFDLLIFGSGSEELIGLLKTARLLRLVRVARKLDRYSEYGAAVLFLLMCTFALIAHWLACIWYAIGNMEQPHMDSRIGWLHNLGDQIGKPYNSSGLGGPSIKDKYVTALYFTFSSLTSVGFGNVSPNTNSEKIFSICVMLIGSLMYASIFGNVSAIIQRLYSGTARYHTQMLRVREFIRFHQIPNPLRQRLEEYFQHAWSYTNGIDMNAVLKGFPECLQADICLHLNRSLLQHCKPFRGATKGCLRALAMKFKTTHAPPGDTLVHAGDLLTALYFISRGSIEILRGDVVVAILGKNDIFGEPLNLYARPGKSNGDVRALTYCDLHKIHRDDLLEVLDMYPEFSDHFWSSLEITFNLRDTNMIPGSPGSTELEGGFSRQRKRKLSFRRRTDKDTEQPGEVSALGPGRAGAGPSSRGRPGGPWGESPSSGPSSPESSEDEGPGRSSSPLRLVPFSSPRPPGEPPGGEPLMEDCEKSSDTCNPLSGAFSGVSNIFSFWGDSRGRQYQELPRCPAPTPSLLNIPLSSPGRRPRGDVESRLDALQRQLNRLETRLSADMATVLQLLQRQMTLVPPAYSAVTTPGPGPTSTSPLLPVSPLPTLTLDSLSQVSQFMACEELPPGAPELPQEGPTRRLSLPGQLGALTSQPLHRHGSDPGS

microsomal CLint at 1 μM [2]: 39 µL/min/mg | Kb (human NK1 receptor): 25.1 nM | Kb (human NK3 receptor): 126 nM | Kb (human NK2 receptor): 50.1 nM | IC50 (CYP3A4): > 50000 nM
Compound: CN(C[C@@H](CCN1CC(N2CCOCC2)C1)c1ccc(F)cc1)C(=O)c1cc(Cl)cc(C(F)(F)F)c1 [Ex1, 3-Chloro-N-[(2S)-2-(4-fluorophenyl)-4-(3-morpholin-4-ylazetidin-1-yl)butyl]-N-methyl-5-(trifluoromethyl)benzamide]
IC50 [1]: 8500 nM
